In US20230085307A1, “PYRIDAZINONE COMPOUND AND HERBICIDE” (NISSAN CHEMICAL CORPORATION, priority 2019, published 2023):

tested on: green foxtail; experiment: Test Example 4: herbicidal effect by soil treatment (Table 19, symbol G); assay type: in vivo, green foxtail (Setaria viridis); details: AAH 320 g/ha
How it was run: (§1)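 Scoring uses the grading scale of an earlier test, three weeks post-application. Treatment consists of spraying a diluted emulsion formulation across the surface of sterilized diluvial soil in which seeds are buried near 1.5 cm deep; boxes are kept in a greenhouse between 25° C. and 30° C.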

SMILES | G: green foxtail, herbicidal effect rating
Cc1nn(C)c(=O)c(-c2c(-c3ccc(C(F)(F)F)cc3)sc3ccccc23)c1O [1-129] | 0 (Herbicidal rate of 5% or less (almost no effect))

tested on: redroot pigweed; experiment: Test Example 4: herbicidal effect by soil treatment (Table 19, symbol N); assay type: in vivo, redroot pigweed (Amaranthus retroflexus); details: AAH 320 g/ha
How it was run: as §1

SMILES | N: redroot pigweed, herbicidal effect rating
Cc1nn(C)c(=O)c(-c2c(-c3ccc(C(F)(F)F)cc3)sc3ccccc23)c1O [1-129] | 5 (Herbicidal rate of 90% or more (almost completely withered))

tested on: persian speedwell; experiment: Test Example 4: herbicidal effect by soil treatment (Table 19, symbol R); assay type: in vivo, Persian speedwell (Veronica persica); details: AAH 320 g/ha
How it was run: as §1

SMILES | R: persian speedwell, herbicidal effect rating
Cc1nn(C)c(=O)c(-c2c(-c3ccc(C(F)(F)F)cc3)sc3ccccc23)c1O [1-129] | 4 (Herbicidal rate of 70% or more and less than 90%)

tested on: lambsquarters; experiment: Test Example 4: herbicidal effect by soil treatment (Table 19, symbol O); assay type: in vivo, lambsquarters (Chenopodium album); details: AAH 320 g/ha
How it was run: as §1

SMILES | O: lambsquarters, herbicidal effect rating
Cc1nn(C)c(=O)c(-c2c(-c3ccc(C(F)(F)F)cc3)sc3ccccc23)c1O [1-129] | 5 (Herbicidal rate of 90% or more (almost completely withered))

tested on: barnyard grass; experiment: Test Example 5: herbicidal effect by foliage application, plastic box (Table 20, symbol H); assay type: in vivo, barnyard grass (Echinochloa crus-galli); details: foliage application, AAH 320 g/ha, three weeks after application
How it was run: (§2)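 Post-emergence foliar test in sterilized diluvial soil. Compound applied as water-diluted emulsion at a predetermined rate to 14-day-old plants; evaluation at three weeks.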

SMILES | H: barnyard grass, herbicidal effect
Cc1nn(C)c(=O)c(-c2c(-c3ccc(C(F)(F)F)cc3)sc3ccccc23)c1O [1-129] | 3 (Herbicidal rate of 40% or more and less than 70%)

tested on: lambsquarters; experiment: Test Example 5: herbicidal effect by foliage application, plastic box (Table 20, symbol O); assay type: in vivo, lambsquarters (Chenopodium album); details: foliage application, AAH 320 g/ha, three weeks after application
How it was run: as §2

SMILES | O: lambsquarters, herbicidal effect
Cc1nn(C)c(=O)c(-c2c(-c3ccc(C(F)(F)F)cc3)sc3ccccc23)c1O [1-129] | 4 (Herbicidal rate of 70% or more and less than 90%)

tested on: windgrass; experiment: Test Example 4: herbicidal effect by soil treatment (Table 19, symbol L); assay type: in vivo, windgrass (Apera spica-venti); details: AAH 320 g/ha
How it was run: as §1

SMILES | L: windgrass, herbicidal effect rating
Cc1nn(C)c(=O)c(-c2c(-c3ccc(C(F)(F)F)cc3)sc3ccccc23)c1O [1-129] | 0 (Herbicidal rate of 5% or less (almost no effect))

tested on: wild oat; experiment: Test Example 4: herbicidal effect by soil treatment (Table 19, symbol I); assay type: in vivo, wild oat (Avena fatua); details: AAH 320 g/ha
How it was run: as §1

SMILES | I: wild oat, herbicidal effect rating
Cc1nn(C)c(=O)c(-c2c(-c3ccc(C(F)(F)F)cc3)sc3ccccc23)c1O [1-129] | 0 (Herbicidal rate of 5% or less (almost no effect))

tested on: wild oat; experiment: Test Example 5: herbicidal effect by foliage application, plastic box (Table 20, symbol I); assay type: in vivo, wild oat (Avena fatua); details: foliage application, AAH 320 g/ha, three weeks after application
How it was run: as §2

SMILES | I: wild oat, herbicidal effect
Cc1nn(C)c(=O)c(-c2c(-c3ccc(C(F)(F)F)cc3)sc3ccccc23)c1O [1-129] | 0 (Herbicidal rate of 5% or less (almost no effect))

tested on: Italian ryegrass; experiment: Test Example 5: herbicidal effect by foliage application, plastic box (Table 20, symbol K); assay type: in vivo, Italian ryegrass (Lolium multiflorum); details: foliage application, AAH 320 g/ha, three weeks after application
How it was run: as §2

SMILES | K: Italian ryegrass, herbicidal effect
Cc1nn(C)c(=O)c(-c2c(-c3ccc(C(F)(F)F)cc3)sc3ccccc23)c1O [1-129] | 5 (Herbicidal rate of 90% or more (almost completely withered))

tested on: persian speedwell; experiment: Test Example 5: herbicidal effect by foliage application, plastic box (Table 20, symbol R); assay type: in vivo, Persian speedwell (Veronica persica); details: foliage application, AAH 320 g/ha, three weeks after application
How it was run: as §2

SMILES | R: persian speedwell, herbicidal effect
Cc1nn(C)c(=O)c(-c2c(-c3ccc(C(F)(F)F)cc3)sc3ccccc23)c1O [1-129] | 5 (Herbicidal rate of 90% or more (almost completely withered))

tested on: chickweed; experiment: Test Example 5: herbicidal effect by foliage application, plastic box (Table 20, symbol P); assay type: in vivo, common chickweed (Stellaria media); details: foliage application, AAH 320 g/ha, three weeks after application
How it was run: as §2

SMILES | P: chickweed, herbicidal effect
Cc1nn(C)c(=O)c(-c2c(-c3ccc(C(F)(F)F)cc3)sc3ccccc23)c1O [1-129] | 5 (Herbicidal rate of 90% or more (almost completely withered))

tested on: blackgrass; experiment: Test Example 4: herbicidal effect by soil treatment (Table 19, symbol J); assay type: in vivo, blackgrass (Alopecurus myosuroides); details: AAH 320 g/ha
How it was run: as §1

SMILES | J: blackgrass, herbicidal effect rating
Cc1nn(C)c(=O)c(-c2c(-c3ccc(C(F)(F)F)cc3)sc3ccccc23)c1O [1-129] | 0 (Herbicidal rate of 5% or less (almost no effect))

tested on: chickweed; experiment: Test Example 4: herbicidal effect by soil treatment (Table 19, symbol P); assay type: in vivo, common chickweed (Stellaria media); details: AAH 320 g/ha
How it was run: as §1

SMILES | P: chickweed, herbicidal effect rating
Cc1nn(C)c(=O)c(-c2c(-c3ccc(C(F)(F)F)cc3)sc3ccccc23)c1O [1-129] | 1 (Herbicidal rate of 5% or more and less than 20%)

tested on: green foxtail; experiment: Test Example 5: herbicidal effect by foliage application, plastic box (Table 20, symbol G); assay type: in vivo, green foxtail (Setaria viridis); details: foliage application, AAH 320 g/ha, three weeks after application
How it was run: as §2

SMILES | G: green foxtail, herbicidal effect
Cc1nn(C)c(=O)c(-c2c(-c3ccc(C(F)(F)F)cc3)sc3ccccc23)c1O [1-129] | 2 (Herbicidal rate of 20% or more and less than 40%)

tested on: blackgrass; experiment: Test Example 5: herbicidal effect by foliage application, plastic box (Table 20, symbol J); assay type: in vivo, blackgrass (Alopecurus myosuroides); details: foliage application, AAH 320 g/ha, three weeks after application
How it was run: as §2

SMILES | J: blackgrass, herbicidal effect
Cc1nn(C)c(=O)c(-c2c(-c3ccc(C(F)(F)F)cc3)sc3ccccc23)c1O [1-129] | 0 (Herbicidal rate of 5% or less (almost no effect))

tested on: windgrass; experiment: Test Example 5: herbicidal effect by foliage application, plastic box (Table 20, symbol L); assay type: in vivo, windgrass (Apera spica-venti); details: foliage application, AAH 320 g/ha, three weeks after application
How it was run: as §2

SMILES | L: windgrass, herbicidal effect
Cc1nn(C)c(=O)c(-c2c(-c3ccc(C(F)(F)F)cc3)sc3ccccc23)c1O [1-129] | 0 (Herbicidal rate of 5% or less (almost no effect))

tested on: velvetleaf; experiment: Test Example 5: herbicidal effect by foliage application, plastic box (Table 20, symbol M); assay type: in vivo, velvetleaf (Abutilon theophrasti); details: foliage application, AAH 320 g/ha, three weeks after application
How it was run: as §2

SMILES | M: velvetleaf, herbicidal effect
Cc1nn(C)c(=O)c(-c2c(-c3ccc(C(F)(F)F)cc3)sc3ccccc23)c1O [1-129] | 5 (Herbicidal rate of 90% or more (almost completely withered))

tested on: Chinese sprangletop; experiment: Test Example 3: herbicidal effect by foliage application, Wagner pot (Table 18, symbol D); assay type: in vivo, chinese sprangletop (Leptochloa chinensis); details: 320 g/ha
How it was run: (§3)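 Plants were sown in alluvial soil held under 0.1–0.5 cm standing water and grown 14 days in a greenhouse at 25–30 °C. An emulsifiable formulation, water-diluted to the set dose, was then sprayed onto the foliage, and effects were scored three weeks later using previously defined criteria.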

SMILES | herbicidal effect on D (Chinese sprangletop), rating 0-5
Cc1nn(C)c(=O)c(-c2c(-c3ccc(C(F)(F)F)cc3)sc3ccccc23)c1O [1-129] | 3 (Herbicidal rate of 40% or more and less than 70%)

tested on: southern crabgrass; experiment: Test Example 4: herbicidal effect by soil treatment (Table 19, symbol F); assay type: in vivo, southern crabgrass (Digitaria ciliaris); details: AAH 320 g/ha
How it was run: as §1

SMILES | F: southern crabgrass, herbicidal effect rating
Cc1nn(C)c(=O)c(-c2c(-c3ccc(C(F)(F)F)cc3)sc3ccccc23)c1O [1-129] | 0 (Herbicidal rate of 5% or less (almost no effect))

tested on: barnyard grass; experiment: Test Example 3: herbicidal effect by foliage application, Wagner pot (Table 18, symbol H); assay type: in vivo, barnyard grass (Echinochloa crus-galli); details: 320 g/ha
How it was run: as §3

SMILES | herbicidal effect on H (barnyard grass), rating 0-5
Cc1nn(C)c(=O)c(-c2c(-c3ccc(C(F)(F)F)cc3)sc3ccccc23)c1O [1-129] | 3 (Herbicidal rate of 40% or more and less than 70%)

tested on: Italian ryegrass; experiment: Test Example 4: herbicidal effect by soil treatment (Table 19, symbol K); assay type: in vivo, Italian ryegrass (Lolium multiflorum); details: AAH 320 g/ha
How it was run: as §1

SMILES | K: Italian ryegrass, herbicidal effect rating
Cc1nn(C)c(=O)c(-c2c(-c3ccc(C(F)(F)F)cc3)sc3ccccc23)c1O [1-129] | 5 (Herbicidal rate of 90% or more (almost completely withered))

tested on: redroot pigweed; experiment: Test Example 5: herbicidal effect by foliage application, plastic box (Table 20, symbol N); assay type: in vivo, redroot pigweed (Amaranthus retroflexus); details: foliage application, AAH 320 g/ha, three weeks after application
How it was run: as §2

SMILES | N: redroot pigweed, herbicidal effect
Cc1nn(C)c(=O)c(-c2c(-c3ccc(C(F)(F)F)cc3)sc3ccccc23)c1O [1-129] | 5 (Herbicidal rate of 90% or more (almost completely withered))

tested on: barnyard grass; experiment: Test Example 4: herbicidal effect by soil treatment (Table 19, symbol H); assay type: in vivo, barnyard grass (Echinochloa crus-galli); details: AAH 320 g/ha
How it was run: as §1

SMILES | H: barnyard grass, herbicidal effect rating
Cc1nn(C)c(=O)c(-c2c(-c3ccc(C(F)(F)F)cc3)sc3ccccc23)c1O [1-129] | 0 (Herbicidal rate of 5% or less (almost no effect))

tested on: southern crabgrass; experiment: Test Example 5: herbicidal effect by foliage application, plastic box (Table 20, symbol F); assay type: in vivo, southern crabgrass (Digitaria ciliaris); details: foliage application, AAH 320 g/ha, three weeks after application
How it was run: as §2

SMILES | F: southern crabgrass, herbicidal effect
Cc1nn(C)c(=O)c(-c2c(-c3ccc(C(F)(F)F)cc3)sc3ccccc23)c1O [1-129] | 0 (Herbicidal rate of 5% or less (almost no effect))

tested on: velvetleaf; experiment: Test Example 4: herbicidal effect by soil treatment (Table 19, symbol M); assay type: in vivo, velvetleaf (Abutilon theophrasti); details: AAH 320 g/ha
How it was run: as §1

SMILES | M: velvetleaf, herbicidal effect rating
Cc1nn(C)c(=O)c(-c2c(-c3ccc(C(F)(F)F)cc3)sc3ccccc23)c1O [1-129] | 2 (Herbicidal rate of 20% or more and less than 40%)

tested on: rice flat sedge; experiment: Test Example 3: herbicidal effect by foliage application, Wagner pot (Table 18, symbol E); assay type: in vivo, rice flat sedge (Cyperus iria); details: 320 g/ha
How it was run: as §3

SMILES | herbicidal effect on E (rice flat sedge), rating 0-5
Cc1nn(C)c(=O)c(-c2c(-c3ccc(C(F)(F)F)cc3)sc3ccccc23)c1O [1-129] | 5 (Herbicidal rate of 90% or more (almost completely withered))
